Patent US4461773A, “P-Oxooxazolidinylbenzene compounds as antibacterial agents” (E. I. DuPont de Nemours and Company, priority 1984, dated 1984)
Values after ≈ are worked out from the molar mass of the structure shown. Where two headings read alike, the source gives them in different places.

Key:
[1] = system: E. Coli; assay: In vitro broth microdilution minimal inhibitory concentration, E. Coli (Table I); type: cell-based; conditions: Escherichia coli, read-out: MIC (minimal inhibitory concentration), E. Coli
From the text: (§1) A list is presented in Table I of analogs which exert an in-vitro antibacterial effect.

[2] = system: S. epidermidis; assay: In vitro broth microdilution minimal inhibitory concentration, S. epidermidis (Table I); type: cell-based; conditions: Staphylococcus epidermidis, read-out: MIC (minimal inhibitory concentration), S. epidermidis
From the text: as §1

[3] = system: E. coli; assay: In vivo efficacy in mice infected intraperitoneally with E. coli (Table III); conditions: Escherichia coli, 4 h, read-out: ED50, E. Coli
Procedure: (§2) In-vivo efficacy determinations were performed by inoculating mice interaperitoneally with cultures of the infecting organism diluted to produce 90-100% mortality in control animals within seven days. The diluents used were trypticase soy broth for E. coli, Proteus sp. and Psuedomonas aeruginosa and 5% hog gastric mucin for Staphylococcus aureus infections. The compounds, dissolved or suspended in 0.25% methocel.cndot.H2 O were administered orally by intubation at the time of infection and again at four hours post-infection. Mortality was recorded daily until test termination and the 50 percent effective dose. ED50, was calculated by the Reed-Muench method (Reed, L. G. and Muench, H., "A simple method of estimating fifty percent end points." American Journal of Hygiene, 27, 1938, 493-497).

[4] = system: Staphylococcus aureus; assay: In vivo efficacy in mice infected intraperitoneally with Staphylococcus aureus (Table III); conditions: 4 h, read-out: ED50, S. auerus
Procedure: as §2

[5] = broth microdilution, Mueller-Hinton broth, 24 hour
[6] = mice, intraperitoneal infection, trypticase soy broth, oral dosing at infection and four hours post-infection, Reed-Muench
[7] = mice, intraperitoneal infection, 5% hog gastric mucin, oral dosing at infection and four hours post-infection, Reed-Muench

Compound | MIC [1, 5] | MIC [2, 5] | ED50 [3, 6] | ED50 [4, 7] | MIC ([1]; 24 h) | MIC ([2]; 24 h) | ED50 ([3]; po) | ED50 ([4]; po)
CN(C)S(=O)(=O)c1ccc(N2CC(CO)OC2=O)cc1 (racemic) [Example 3a, dl-N,N-dimethyl-4-[5-(hydroxymethyl)-2-oxooxazolidin-3-yl]benzenesulfonamide] | > 200 µg/mL | 50 µg/mL (≈ 166 µM) |  |  |  |  |  | 
CNS(=O)(=O)c1ccc(N2CC(CO)OC2=O)cc1 (racemic) [Example 3b, dl-N-methyl-4-[5-(hydroxymethyl)-2-oxooxazolidin-3-yl]benzenesulfonamide] | > 200 µg/mL | 50 µg/mL (≈ 175 µM) |  |  |  |  |  | 
[N-]=[N+]=NS(=O)(=O)c1ccc(N2CC(CO)OC2=O)cc1 (racemic) [Example 4, dl-4-[5-(Hydroxymethyl)-2-oxooxazolidin-3-yl]benzenesulfonyl Azide] | 12.5 µg/mL (≈ 41.9 µM) | 4.2 µg/mL (≈ 14.1 µM) | 17.9 mg/kg | 26 mg/kg |  |  |  | 
O=C1OC(CO)CN1c1ccc(S(=O)(=O)N(Cl)Cl)cc1 (racemic) [Example 11, dl-N,N-Dichloro-4-[5-(hydroxymethyl)-2-oxooxazolidin-3-yl]benzenesulfonamide] | > 100 µg/mL | > 100 µg/mL | 53.7 mg/kg | 36.3 mg/kg |  |  |  | 
O=C1OC(CO)CN1c1ccc(S(=O)(=O)NCl)cc1.[Na] (racemic) [Example 13, dl-N-Chloro-4-[5-(hydroxymethyl)-2-oxooxazolidin-3-yl]benzenesulfonamide, sodium salt] |  |  |  |  | 200 µg/mL | 100 µg/mL | 43.6 mg/kg | 47.4 mg/kg
CS(C)=NS(=O)(=O)c1ccc(N2CC(CO)OC2=O)cc1 (racemic) [Example 15, dl-N-{4-[5-(Hydroxymethyl)-2-oxooxazolidin-3-yl]-phenylsulfonyl}-S,S-dimethylsulfilimine] | > 100 µg/mL | > 100 µg/mL | 118 mg/kg | 48.5 mg/kg |  |  |  | 
NNS(=O)(=O)c1ccc(N2CC(CO)OC2=O)cc1 (racemic) [Example 16, dl-3-[4-Hydrazinosulfonyl)phenyl]-5-(hydroxymethyl)-2-oxazolidin-2-one] | > 100 µg/mL | > 100 µg/mL | > 360 mg/kg | 119 mg/kg |  |  |  | 
CC(=O)OCC1CN(c2ccc(S(N)(=O)=O)cc2)C(=O)O1 (racemic) [Example 17, dl-4-[5-(Acetoxymethyl)-2-oxooxazolidin-3-yl]benzenesulfonamide] | > 50 µg/mL | > 50 µg/mL | 48.9 mg/kg | 47.1 mg/kg |  |  |  | 
CCC(=O)OCC1CN(c2ccc(S(N)(=O)=O)cc2)C(=O)O1 (racemic) [Example 19, dl-4-[5-(Propionyloxymethyl)-2-oxooxazolidin-3-yl]-benzenesulfonamide] | > 100 µg/mL | 25 µg/mL (≈ 76.1 µM) | > 360 mg/kg | 166 mg/kg |  |  |  | 
NS(=O)(=O)c1ccc(N2CC(COC(=O)CCC(=O)O)OC2=O)cc1 (racemic) [Example 20, dl-Butanedioic acid, Mono Ester with 4-[5-(Hydroxymethyl)-2-oxooxazolidin-3-yl]benzenesulfonamide] | > 100 µg/mL | > 100 µg/mL | 77.3 mg/kg | 85.3 mg/kg |  |  |  | 
O=C(NS(=O)(=O)c1ccc(N2CC(CO)OC2=O)cc1)C(Cl)Cl (racemic) [Example 34, dl-2,2-Dichloro-N-[4-[5-(Hydroxymethyl)-2-oxooxazolidin-3-yl]phenylsulfonyl]acetamide] | > 200 µg/mL | > 200 µg/mL |  | 18.3 mg/kg |  |  |  | 
O=C1OC(CO)CN1c1ccc(S(=O)(=O)NC(=O)C(Cl)(Cl)Cl)cc1 (racemic) [Example 35, dl-2,2,2-Trichloro-N-[4-[5-(hyroxymethyl)-2-oxooxazolidin-3-yl]phenylsulfonyl]acetamide] | > 200 µg/mL | > 200 µg/mL |  | 58.5 mg/kg |  |  |  | 
CC(=NO)c1ccc(N2CC(CO)OC2=O)cc1 (racemic) [Example 37, dl-5-Hydroxymethyl-3-[4-(1-hydroxyiminoethyl)phenyl]-2-oxazolidinone] | > 50 µg/mL | > 50 µg/mL |  | 68 mg/kg |  |  |  | 
CON=C(C)c1ccc(N2CC(CO)OC2=O)cc1 (racemic) [Example 38, dl-5-Hydroxymethyl-3-[4-(1-methoxyiminoethyl)phenyl]-2-oxazolidinone] |  |  |  | 76.6 mg/kg |  |  |  | 
CC(C)c1ccc(N2CC(CO)OC2=O)cc1 (racemic) [Example 39] |  |  |  | 116 mg/kg |  |  |  | 
C=CCOCC1CN(c2ccc(C(C)C)cc2)C(=O)O1 (racemic) [Example 40] |  |  |  | 79.8 mg/kg |  |  |  | 
CC(=O)c1ccc(N2CC(CO)OC2=O)cc1 (racemic) [Example 41] |  |  | 97.6 mg/kg | 35.8 mg/kg |  |  |  | 
N#Cc1ccc(N2CC(CO)OC2=O)cc1 (racemic) [Example 42] |  |  |  | 66.4 mg/kg |  |  |  | 
O=C1OC(CO)CN1c1ccc([N+](=O)[O-])cc1 (racemic) [Example 43] |  |  | > 360 mg/kg | 40 mg/kg |  |  |  | 
NS(=O)(=O)c1ccc(N2CC(CO)OC2=O)cc1 (stereo not shown) [Example 1, 4-[5-(Hydroxymethyl)-2-oxooxazolidin-3-yl]benzenesulfonamide] | 100 µg/mL (≈ 367 µM) | 100 µg/mL (≈ 367 µM) | 19.7 mg/kg | 40.2 mg/kg |  |  |  | 
[N-]=[N+]=NS(=O)(=O)c1ccc(N2C[C@@H](CO)OC2=O)cc1 [Example 5, l-4-[5-(Hydroxymethyl)-2-oxooxazolidin-3-yl]benzenesulfonyl Azide] | 7.9 µg/mL (≈ 26.5 µM) | 2.4 µg/mL (≈ 8.05 µM) | 14.9 mg/kg | 24.9 mg/kg |  |  |  | 
CNS(=O)(=O)c1ccc(N2C[C@@H](CO)OC2=O)cc1 [Example 6, l-4-[5-(Hydroxymethyl)-2-oxooxazolidin-3-yl]-N-methylbenzenesulfonamide] | ≥ 200 µg/mL | 62.5 µg/mL (≈ 218 µM) | 39.7 mg/kg | 15.4 mg/kg |  |  |  | 
O=C1O[C@H](CO)CN1c1ccc(S(=O)(=O)NC2CC2)cc1 [Example 9, l-4-[5-(Hydroxymethyl)-2-oxooxazolidin-3-yl]-N-cyclopropylbenzenesulfonamide] | > 100 µg/mL | > 100 µg/mL |  | 89.2 mg/kg |  |  |  | 
CONS(=O)(=O)c1ccc(N2C[C@@H](CO)OC2=O)cc1 [Example 10, l-4-[5-(Hydroxymethyl)-2-oxooxazolidin-3-yl]-N-methoxybenzenesulfonamide] | > 100 µg/mL | 100 µg/mL (≈ 331 µM) |  | 52 mg/kg |  |  |  | 
COC[C@@H]1CN(c2ccc(SC)cc2)C(=O)O1 [Example 31, l-5-(Methoxymethyl)-3-[4-(methylthio)phenyl]-2-oxazolidinone] | > 200 µg/mL | > 200 µg/mL |  | 54.6 mg/kg |  |  |  | 
COC[C@@H]1CN(c2ccc(S(C)(=O)=O)cc2)C(=O)O1 [Example 32, l-5-(Methoxymethyl)-3-[4-(methylsulfonyl)phenyl]-2-oxazolidinone] | > 200 µg/mL | 100 µg/mL (≈ 350 µM) | 11.8 mg/kg | 5.1 mg/kg |  |  |  | 
COC[C@@H]1CN(c2ccc(S(N)(=O)=O)cc2)C(=O)O1 [Example 33, l-4-[5-(Methoxymethyl)-2-oxooxazolidin-3-yl]benzenesulfonamide] | > 200 µg/mL | > 200 µg/mL |  | 59.6 mg/kg |  |  |  | 
CC(=O)NS(=O)(=O)c1ccc(N2CC(CO)OC2=O)cc1 (stereo not shown) [Example 36, N-[4-[5-(Hydroxymethyl)-2-oxooxazolidin-3-yl]phenylsulfonyl]acetamide] | > 100 µg/mL | > 100 µg/mL | 56.9 mg/kg | > 120 mg/kg |  |  |  | 
